Assay results taken from ChEMBL document CHEMBL5634096, “Design, synthesis and bioevaluation of PI3Kα-selective inhibitors as potential colorectal cancer drugs” (Eur J Med Chem, 2023).

Tests used:
[1] = biological target: Phosphatidylinositol 4,5-bisphosphate 3-kinase catalytic subunit alpha isoform (Homo sapiens, UniProt P42336); assay: Inhibition of PI3Kalpha (unknown origin) by ADP-Glo luminescent kinase assay
MCF7 = assay: Antiproliferative activity against human MCF7 cells assessed as reduction in cell viability incubated for 24 to 48 hrs by CCK-8 assay; assay type: functional, cell-based
HCT-116 = assay: Antiproliferative activity against human HCT-116 cells assessed as reduction in cell viability incubated for 24 to 48 hrs by CCK-8 assay; assay type: functional, cell-based
MDA-MB-231 = assay: Antiproliferative activity against human MDA-MB-231 cells assessed as reduction in cell viability incubated for 24 to 48 hrs by CCK-8 assay; assay type: functional, cell-based
SW-620 = assay: Antiproliferative activity against human SW-620 cells assessed as reduction in cell viability incubated for 24 to 48 hrs by CCK-8 assay; assay type: functional, cell-based

Sequence of Phosphatidylinositol 4,5-bisphosphate 3-kinase catalytic subunit alpha isoform (P42336 whole entry, canonical isoform): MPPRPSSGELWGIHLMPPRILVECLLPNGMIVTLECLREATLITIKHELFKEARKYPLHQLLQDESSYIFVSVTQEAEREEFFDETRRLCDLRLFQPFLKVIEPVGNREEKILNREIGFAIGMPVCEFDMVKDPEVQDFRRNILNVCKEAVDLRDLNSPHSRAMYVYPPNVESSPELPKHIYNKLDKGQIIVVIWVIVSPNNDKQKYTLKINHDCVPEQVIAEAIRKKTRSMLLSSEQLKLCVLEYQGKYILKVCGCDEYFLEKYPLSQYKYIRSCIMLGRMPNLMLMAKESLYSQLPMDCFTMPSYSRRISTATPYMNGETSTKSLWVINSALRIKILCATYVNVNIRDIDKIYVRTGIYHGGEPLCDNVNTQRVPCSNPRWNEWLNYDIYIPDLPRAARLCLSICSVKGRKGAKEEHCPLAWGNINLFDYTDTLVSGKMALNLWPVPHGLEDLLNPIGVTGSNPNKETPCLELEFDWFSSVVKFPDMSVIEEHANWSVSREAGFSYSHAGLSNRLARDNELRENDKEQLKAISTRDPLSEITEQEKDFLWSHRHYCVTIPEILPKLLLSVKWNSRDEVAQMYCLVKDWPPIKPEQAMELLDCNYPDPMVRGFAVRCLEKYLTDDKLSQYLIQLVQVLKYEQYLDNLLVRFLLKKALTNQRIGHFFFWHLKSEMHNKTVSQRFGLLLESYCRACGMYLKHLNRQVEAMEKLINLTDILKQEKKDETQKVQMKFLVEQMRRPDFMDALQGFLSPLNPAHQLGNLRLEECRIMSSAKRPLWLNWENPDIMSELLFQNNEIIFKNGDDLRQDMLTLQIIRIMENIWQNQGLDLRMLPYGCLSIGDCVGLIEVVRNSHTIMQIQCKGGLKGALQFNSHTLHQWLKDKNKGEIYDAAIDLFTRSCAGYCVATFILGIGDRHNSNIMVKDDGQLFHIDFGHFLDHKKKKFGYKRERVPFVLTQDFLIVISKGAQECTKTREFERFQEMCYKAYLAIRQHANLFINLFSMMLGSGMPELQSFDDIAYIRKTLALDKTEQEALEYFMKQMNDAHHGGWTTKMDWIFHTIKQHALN

Structure (SMILES)	IC50 [1] [µM]	IC50 (MCF7) [µM]	IC50 (HCT-116) [µM]	IC50 (MDA-MB-231) [µM]	IC50 (SW-620) [µM]
NC(=O)CNc1cnc2cc(-c3ccc4oc(N)nc4c3)ccc2n1	0.476				
Nc1nc2cc(-c3ccc4nc(N5C[C@@H]6OCCO[C@@H]6C5)cnc4c3)ccc2o1	1.64				
Nc1nc2cc(-c3ccc4ncc(N5C[C@@H]6OCCO[C@H]6C5)nc4c3)ccc2o1	0.603				
NC(=O)[C@H](Cc1ccccc1)NC(=O)c1cnc2ccc(-c3ccc4oc(N)nc4c3)cn12	0.0112	18.8	7.72	18.2	8.4
Nc1nc2cc(-c3ccc4ncc(C(=O)N5C[C@H]6OCCO[C@@H]6C5)n4c3)ccc2o1 (single isomer, unassigned)	0.0088	5.89	7.95	10.8	13.5
Nc1nc2ccc(-c3ccc4ncc(C(=O)N5CCOC(CO)C5)n4c3)cc2o1 (single isomer, unassigned)	0.0186	19	14.5	17.2	> 100
COC1CCN(C(=O)c2cnc3ccc(-c4ccc5oc(N)nc5c4)cn23)C1 (stereo not drawn)	9.68				
NC(=O)CNc1ncnc2ccc(-c3ccc4oc(N)nc4c3)cc12	0.0255				
Nc1nc2cc(-c3ccc4ncc(C(=O)N5CCNCC5)n4c3)ccc2o1	0.138				
NC(=O)CNc1cnc2ccc(-c3ccc4oc(N)nc4c3)cc2n1	0.0038	5.59	4.56	10.2	24.9
CCC(NC(=O)c1cnc2ccc(-c3ccc4oc(N)nc4c3)cn12)C(=O)OC (stereo not drawn)	0.807	> 100	> 100	> 100	> 100
C[C@@H](NC(=O)c1cnc2ccc(-c3ccc4oc(N)nc4c3)cn12)C(N)=O	> 10	36.1	> 100	> 100	> 100
NC(=O)[C@@H]1CCCN1C(=O)c1cnc2ccc(-c3ccc4oc(N)nc4c3)cn12	0.0181	2.18	10	25	12
C[C@H](NC(=O)c1cnc2ccc(-c3ccc4oc(N)nc4c3)cn12)C(=O)O	> 10				
CN(C)C1CCN(C(=O)c2cnc3ccc(-c4ccc5oc(N)nc5c4)cn23)C1 (stereo not drawn)	0.0108	15.1	6.05	12.3	11
NC(=O)[C@H](Cc1ccc(O)cc1)NC(=O)c1cnc2ccc(-c3ccc4oc(N)nc4c3)cn12	3.52	14.7	> 100	> 100	28.8
CCOC(=O)[C@H](C)NC(=O)c1cnc2ccc(-c3ccc4oc(N)nc4c3)cn12	> 10	> 100	> 100	> 100	> 100
NC(=O)[C@H](NC(=O)c1cnc2ccc(-c3ccc4oc(N)nc4c3)cn12)c1ccccc1	0.0231	12.2	7.3	> 100	49.9
Nc1nc2cc(-c3ccc4ncc(C(=O)N5C[C@@H]6OCCO[C@@H]6C5)n4c3)ccc2o1	0.0072	2.28	5.31	12.4	7.16
NC(=O)[C@@H](NC(=O)c1cnc2ccc(-c3ccc4oc(N)nc4c3)cn12)c1ccccc1	0.014	9.83	9.39	21	17.1
NC(=O)C(NC(=O)c1cnc2ccc(-c3ccc4oc(N)nc4c3)cn12)c1ccccc1 (stereo not drawn)	0.0193	16.2	34	> 100	37.8
C[C@H](Nc1cnc2ccc(-c3ccc4oc(N)nc4c3)cc2n1)C(N)=O	0.499	10.5	25.4	15.3	60.2
Nc1nc2cc(-c3ccc4ncc(NCC(=O)NO)nc4c3)ccc2o1	0.107				
